# Experimental data from PMC2900928 (Cell, 2010).
# How the values were obtained:
# BT1754-PD = target: T1, BT1754-PD (Bacteroides thetaiotaomicron, UniProt Q8A6X1); test: isothermal titration calorimetry; assay type: binding; conditions: 20 mM Tris-HCl, pH 8.0; 1:1 stoichiometry, single site
# T1 sequence (Q8A6X1 29-343): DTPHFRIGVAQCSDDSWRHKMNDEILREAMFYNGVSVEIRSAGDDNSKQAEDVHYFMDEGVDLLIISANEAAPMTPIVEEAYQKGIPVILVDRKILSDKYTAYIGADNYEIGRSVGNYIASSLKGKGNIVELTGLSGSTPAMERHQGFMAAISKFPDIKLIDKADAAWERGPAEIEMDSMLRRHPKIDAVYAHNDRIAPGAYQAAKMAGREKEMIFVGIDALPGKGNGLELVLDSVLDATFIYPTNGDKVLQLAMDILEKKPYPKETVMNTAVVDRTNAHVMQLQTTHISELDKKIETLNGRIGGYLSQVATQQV
# BT1765 = target: T2, BT1765 (Bacteroides thetaiotaomicron, UniProt Q8A6W1); test: fructose release; assay type: biochemical; conditions: 20 mM Tris-HCl, pH 8.0, 37°C
# T2 sequence (Q8A6W1 26-627): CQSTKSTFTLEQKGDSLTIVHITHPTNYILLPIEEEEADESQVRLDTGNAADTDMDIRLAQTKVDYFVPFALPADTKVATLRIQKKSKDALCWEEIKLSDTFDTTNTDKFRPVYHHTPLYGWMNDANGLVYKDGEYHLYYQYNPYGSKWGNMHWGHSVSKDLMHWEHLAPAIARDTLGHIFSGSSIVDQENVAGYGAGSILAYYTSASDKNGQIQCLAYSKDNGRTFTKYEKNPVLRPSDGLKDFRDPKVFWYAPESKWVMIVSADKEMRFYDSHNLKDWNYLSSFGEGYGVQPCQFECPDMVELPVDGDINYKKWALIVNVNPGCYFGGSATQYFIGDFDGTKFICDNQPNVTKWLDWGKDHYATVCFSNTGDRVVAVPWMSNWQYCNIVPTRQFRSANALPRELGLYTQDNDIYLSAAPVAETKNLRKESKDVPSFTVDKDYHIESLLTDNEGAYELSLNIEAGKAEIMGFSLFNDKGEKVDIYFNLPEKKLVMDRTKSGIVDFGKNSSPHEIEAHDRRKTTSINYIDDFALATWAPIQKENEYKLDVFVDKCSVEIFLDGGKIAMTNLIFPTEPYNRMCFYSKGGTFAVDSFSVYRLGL
# BT3082 = target: T3, BT3082 (Bacteroides thetaiotaomicron, UniProt Q8A373); test: fructose release; assay type: biochemical; conditions: 20 mM Tris-HCl, pH 8.0, 37°C
# T3 sequence (Q8A373 21-548): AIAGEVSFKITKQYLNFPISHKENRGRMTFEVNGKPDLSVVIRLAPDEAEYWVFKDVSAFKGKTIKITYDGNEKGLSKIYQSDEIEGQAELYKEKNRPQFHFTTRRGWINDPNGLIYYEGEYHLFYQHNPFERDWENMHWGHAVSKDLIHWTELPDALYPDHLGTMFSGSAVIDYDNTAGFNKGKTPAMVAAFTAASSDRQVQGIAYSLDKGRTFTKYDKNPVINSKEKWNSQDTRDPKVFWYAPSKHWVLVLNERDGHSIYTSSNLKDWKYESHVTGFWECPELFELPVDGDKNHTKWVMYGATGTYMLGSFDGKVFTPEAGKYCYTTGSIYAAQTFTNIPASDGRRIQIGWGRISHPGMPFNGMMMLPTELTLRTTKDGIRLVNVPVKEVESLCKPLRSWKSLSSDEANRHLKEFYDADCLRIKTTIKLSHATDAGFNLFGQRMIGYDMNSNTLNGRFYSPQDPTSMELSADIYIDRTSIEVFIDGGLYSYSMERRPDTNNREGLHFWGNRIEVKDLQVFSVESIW
# BT1759 = target: T4, BT1759 (Bacteroides thetaiotaomicron, UniProt Q8A6W7); test: fructose release; assay type: biochemical; conditions: 20 mM Tris-HCl, pH 8.0, 37°C
# T4 sequence (Q8A6W7 29-610): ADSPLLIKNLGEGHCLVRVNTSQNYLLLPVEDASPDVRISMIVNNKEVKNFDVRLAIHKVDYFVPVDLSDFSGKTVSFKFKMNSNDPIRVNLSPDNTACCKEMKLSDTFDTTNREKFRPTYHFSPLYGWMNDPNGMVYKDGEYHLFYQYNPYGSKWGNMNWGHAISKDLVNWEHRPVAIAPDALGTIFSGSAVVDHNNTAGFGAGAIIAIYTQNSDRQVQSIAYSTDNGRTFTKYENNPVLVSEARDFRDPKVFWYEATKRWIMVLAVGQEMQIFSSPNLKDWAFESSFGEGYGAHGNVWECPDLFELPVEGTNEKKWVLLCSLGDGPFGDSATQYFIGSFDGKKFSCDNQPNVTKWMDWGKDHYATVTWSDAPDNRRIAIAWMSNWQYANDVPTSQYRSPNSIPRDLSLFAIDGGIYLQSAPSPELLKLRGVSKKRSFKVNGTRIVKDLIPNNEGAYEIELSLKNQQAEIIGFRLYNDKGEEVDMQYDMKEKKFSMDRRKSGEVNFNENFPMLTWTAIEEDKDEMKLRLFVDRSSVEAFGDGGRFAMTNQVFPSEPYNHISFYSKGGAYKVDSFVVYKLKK
Kd (BT1754-PD) [µM],KM (BT3082),KM (BT1759),Structure (SMILES),KM (BT1765)
~2,–,–,OCC1(O)OC[C@@H](O)[C@@H](O)[C@@H]1O (some centres unmarked) [fructose],–
–,–,–,"OC[C@H]1O[C@@](CO)(OC[C@H]2OC(O)(CO)[C@@H](O)[C@@H]2O)[C@@H](O)[C@@H]1O (some centres unmarked) [L2, levanbiose]",the enzyme is also able to efficiently degrade levanbiose (Table S2)
–,BT1759 and BT3082 also cleave sucrose,BT1759 and BT3082 also cleave sucrose,OC[C@H]1O[C@@](CO)(O[C@H]2O[C@H](CO)[C@@H](O)[C@H](O)[C@H]2O)[C@@H](O)[C@@H]1O [sucrose],BT1765 prefers sucrose over any of the other oligo- or polysaccharides tested
